Results published in patent US4443468A, “Benzofuran derivatives, process for their preparation and their therapeutic applications” (Laboratoires Jacques Logeais, priority 1978, dated 1984).
Structures can show the parent of a compound that is named as a salt. Where two headings read alike, the source gives them in different places.

Experiments:
Type in all cases: in vivo
Acute toxicity in mice = settings: mouse, in vivo, single dose
Description: (§1) (a) Acute toxicity in mice
(§2) Each compound was administered orally, intra-peritoneally, or intravenously as a single dose.

mice = test: Acute toxicity in mice; settings: single dose, behavior observed
Description: as §1, §2

[1] = test system: maximum stimulation heart rate (FMS); test: Maximum stimulation heart rate (FMS) in rabbits
Description: (§3) The anti-dysrhythmic activity of the compounds of the formula (I) was evaluated according to the following pharmacological tests:
maximum stimulation heart rate (FMS)
The FMS, as determined in vivo in rabbits by cardiac stimulation by means of a stimulation probe placed in the left auricular cavity, provides an overall determination of the duration of the refractory period of the conductive routes and of the fibres of the myocardium.

[2] = test system: dysrhythmia on central stimulation; test: Dysrhythmia on central stimulation in rabbits
Description: The anti-dysrhythmic activity of the compounds of the formula (I) was evaluated according to the following pharmacological tests: […]

[3] = test system: aconitine induced dysrhythmias; test: Aconitine induced dysrhythmias in rats
Description: as §3
aconitine induced dysrhythmias in rats: this agent has a deeply perturbating effect on the ionic permeability of the membranes;

[4] = test system: anoxia induced dysrhythmias; test: Anoxia induced dysrhythmias in rats, after pre-treatment with a subliminal dosage of aconitine
Description: as §3
anoxia induced dysrhythmias in rats, after pre-treatment with a subliminal dosage of aconitine (combination of the effects of a sympathetic stimulation with those due to perturbations of ionic conductions);

[5] = test system: ouabaine induced dysrhythmias; test: Ouabaine induced dysrhythmias in guinea-pigs; settings: 10-20 mg/kg i.v., guinea-pig
Description: as §3
ouabaine induced dysrhythmias in guinea-pigs: at toxic dosages, ouabaine affects transmembrane ionic exchanges; on the other hand, it induces a concomitant sympathetic activation.

[6] = test system: dysrhythmias induced by localized ischemia; test: Method according to Harris, in dogs (coronary ligation); settings: 10 mg/kg i.v.
Description: as §3
method according to Harris, in dogs: coronary ligation and dysrhythmias induced by localized ischemia.

[7] = intravenous, read-out: LD50, i.v.
[8] = ip, intra-peritoneal, read-out: LD50, i.p.

Structure (SMILES) | LD50 (Acute toxicity in mice; [8]) [mg/kg] | LD50 (Acute toxicity in mice; oral, read-out: LD50, p.o.) [mg/kg] | Remarks (acute toxicity) (mice) | Anoxia Rat ([4]; 10 mg/kg i.v.) | other results
NC1=NCC(c2cc3ccccc3o2)C1 (stereo not shown) [Example 1, 2-Amino-4-(2-benzofuryl)Δ-1-pyrroline hydrochloride] | 58 | 115 | – | – | LD50 (Acute toxicity in mice; [7]): 46 mg/kg
c1ccc(CCNC2=NCC(c3cc4ccccc4o3)C2)cc1 (stereo not shown) [Example 7, 2-Phenethylamino-4-(2-benzofuryl)Δ-1-pyrroline hydrochloride] | 98 | > 200 | Convulsions | – | FMS Rabbit ([1]; 2 mg/kg i.v.): +; Central stimulation Rabbit ([2]; i.v., dose not given): 0; Aconitine Rat ([3]; 5 mg/kg i.v.): +
c1ccc2oc(C3CN=C(N4CCOCC4)C3)cc2c1 (stereo not shown) [Example 9, 2-Morpholino-4-(2-benzofuryl)Δ-1-pyrroline hydrochloride] | 142 | > 200 | – | – | Anoxia Rat ([4]; i.v., dose not given): 0
c1ccc2oc(C3CN=C(N4CCCC4)C3)cc2c1 (stereo not shown) [Example 8, 2-Pyrrolidino-4-(2-benzofuryl)Δ-1-pyrroline hydrochloride] | 76 | 200 | – | + | Aconitine Rat ([3]; 10 mg/kg i.v.): +
CN1CCN(C2=NCC(c3cc4ccccc4o3)C2)CC1 (stereo not shown) [Example 10, 2-(4-Methyl-piperazino)-4-(2-benzofuryl)Δ-1-pyrroline methanesulfonate] | 142 | > 200 | – | + | –
CN(C)C1=NCC(c2cc3ccccc3o2)C1 (stereo not shown) [Example 4, 2-Dimethylamino-4-(2-benzofuryl)Δ-1-pyrroline hydrochloride] | – | 240 | convulsions | – | LD50 (Acute toxicity in mice; [7]): 38.5 mg/kg; FMS Rabbit ([1]; 2.5 mg/kg i.v.): +; Central stimulation Rabbit ([2]; 5 mg/kg i.v.): ++; Anoxia Rat ([4]; 10-20 mg/kg i.v.): ++; Ouabaine Cobaye [5]: +; Harris Ligation Dog [6]: +
CCN(CC)C1=NCC(c2cc3ccccc3o2)C1 (stereo not shown) [Example 5, 2-Diethylamino-4-(2-benzofuryl)Δ-1-pyrroline fumarate] | 58 | 180 | – | – | –
CNC1=NCC(c2cc3ccccc3o2)C1 (stereo not shown) [Example 2, 2-Methylamino-4-(2-benzofuryl)Δ-1-pyrroline hydrochloride] | 58 | > 200 | – | – | FMS Rabbit ([1]; 7.5 mg/kg i.v.): +; Central stimulation Rabbit ([2]; 3 mg/kg i.v.): +; Aconitine Rat ([3]; 10 mg/kg i.v.): +
CC(C)NC1=NCC(c2cc3ccccc3o2)C1 (stereo not shown) [Example 3, 2-Isopropylamino-4-(2-benzofuryl)Δ-1-pyrroline hydrochloride] | 58 | 200 | – | + | –
c1ccc(NC2=NCC(c3cc4ccccc4o3)C2)cc1 (stereo not shown) [Example 6, 2-Anilino-4-(2-benzofuryl)Δ-1-pyrroline hydrochloride] | 58 | 110 | Hyperesthesia | – | FMS Rabbit ([1]; 2.5 mg/kg i.v.): +; Central stimulation Rabbit ([2]; 2.5 mg/kg i.v.): +; Anoxia Rat ([4]; i.v., dose not given): 0
